Assay results published in the RepoRT retention time repository.

Assay: RP, Waters ACQUITY UPLC BEH C18, 50 × 2.1 mm, 1.7 µm, 40 °C, 0.6 mL/min, estimated dead time 0.18 min; A: water + 0.1% formic acid, pH 3; B: acetonitrile + 0.1% formic acid, pH 3; gradient (min/%B) 0/5 7/100 8/100
Settings: stereoisomer not certain

Structure (SMILES)	LC retention time
CCN1CC2(COC(=O)c3ccccc3NC(=O)C(C)CC(=O)O)CCC(OC)C34C5CC6C(OC)CC(O)(C5C6OC)C(O)(C(OC)C23)C14 (stereo unspecified)	2.37 min
COc1cc(CC[N+](C)(C)C)c2ccc3cc4c(c5c3c2c1OC5)OCO4	0.975 min
CC(=O)OC1CC(O)C23COC(O)C1(C)C2CC(O)C1(C)C3=C(O)C(=O)C2(C)C(c3ccoc3)CC3OC312 (stereo unspecified)	2.39 min
COC(=O)C1=CC(O)C23OOC1CC2(C)CCC3C(C)C (stereo unspecified)	3.72 min
CC(O)c1cncc2c(=O)n3c(cc12)-c1[nH]c2ccccc2c1CC3 (stereo unspecified)	3.25 min
COC(=O)C1=COC(OC2OC(CO)C(O)C(O)C2O)C2C(O)CN3CCc4c([nH]c5ccccc45)[C@@H]3CC12 (stereo partly specified)	1.29 min
CC(=O)OC(C)(C)/C=C/C(=O)[C@](C)(O)[C@H]1[C@H](O)C[C@@]2(C)C3CC=C4C(C[C@H](OC5OC(CO)C(O)C(O)C5O)C(=O)C4(C)C)[C@]3(C)C(=O)C[C@]12C (stereo partly specified)	2.74 min
COc1c(O)c(O)c(-c2c(O)c(O)c(OC)c3oc4ccccc4c23)c2c1oc1ccccc12	3.58 min
COC(=O)CC(C1=C2OC(=O)C(C(=O)CC(C)C)=C(O)C2(CC=C(C)C)CC(CC=C(C)C)C1(C)C)c1ccccc1 (stereo unspecified)	6.83 min
CC1CCC2(OC1)OC1CC3C4C(O)C(=O)C5(O)C(O)C(O)C(O)C(O)C5(C)C4CCC3(C)C1C2C (stereo unspecified)	3.19 min
C=CCc1ccc(O)c(-c2cc(CC=C)ccc2O)c1 [5,5'-bis(prop-2-en-1-yl)-[1,1'-biphenyl]-2,2'-diol]	2.78 min
CC[C@]12C=CCN3CC[C@]4(C(=C(C(=O)OC)C1)Nc1ccccc14)C32 (stereo partly specified)	2.17 min
C=C(C(=O)C(O)C(C)C1C(OC(C)=O)CC2(C)C3CCC4C(C)C(=O)C=CC45CC35CCC12C)C(C)C (stereo unspecified)	5.56 min
C=C(C)C(CC=C(C)C)Cc1c(O)cc(OC)c2c1OC(c1ccc(O)cc1O)CC2=O (stereo unspecified)	4.6 min
C=C1C(=O)O[C@@H]2C[C@@]3(C)CCCC(=C)[C@@H]3C[C@H]12	4.2 min
CCC1CC2CC3(C(=O)OC)c4[nH]c5ccccc5c4CCN(C2OC)C13 (stereo unspecified)	1.77 min
COc1cc2c3c(c1OC)Oc1ccc(cc1)CC1c4c(cc(OC)c5c4Oc4ccc(cc4CO5)CC3N(C)CC2)CCN1C (stereo unspecified)	1.6 min

Structure (SMILES)	LC retention time
CCN1CC2(COC(=O)c3ccccc3N)CCC(OC)C34C5CC6C(OC)CC(O)(C5C6OC)C(O)(C(OC)C23)C14 (stereo unspecified)	2.4 min
CN1CCc2cc3c(c4c2C1CC41C=CC(=O)C=C1)OCO3 (stereo unspecified)	1.08 min
CC[C@H]1C[C@@H]2CN3CCc4c([nH]c5ccccc45)[C@](C(=O)OC)(C2)[C@H]13	2.05 min
COc1cc2c(cc1O)C(Cc1ccc(OC3=CC4(C=CC3=O)CC3c5c(cc(OC)c(OC)c54)CCN3C)cc1)N(C)CC2 (stereo unspecified)	1.59 min
O=C(/C=C/c1ccc(O)cc1)OC[C@H]1O[C@@H](Oc2cc(O)c3c(=O)cc(-c4ccc(O)cc4)oc3c2)[C@H](OC(=O)/C=C/c2ccc(O)cc2)[C@@H](O)[C@@H]1O	3.15 min
COc1cc(/C=C/C(=O)OCC(Cc2ccc(O)c(OC)c2)C(COC(C)=O)Cc2ccc(O)c(OC)c2)ccc1O (stereo unspecified)	2.3 min
O=C1c2ccc(O)cc2OC(c2ccc(O)cc2)C1C1C(=O)c2ccc(O)cc2OC1c1ccc(O)cc1 (stereo unspecified)	2.67 min
C[C@@H]1CC2(NCCS2)C(=O)C(O[C@@H]2CC3CCC4C(CC[C@]5(C)[C@@H](C6=CC(=O)OC6)CC[C@]45O)[C@@]3(C=O)C[C@H]2O)O1 (stereo partly specified)	1.89 min
Oc1ccc(C2Oc3cc(O)cc4c3C2c2cc(O)cc(O)c2C(c2ccc(O)cc2)C2c3cc(O)cc(O)c3C(c3ccc(O)cc3)C42)cc1 (stereo unspecified)	2.23 min
COc1c(C=O)c(O)cc2c1C(=O)c1ccccc1C2=O	3.59 min
CC(C)=CCC1CC23CC(CC=C(C)C)C(C)(C)C(CC=C(C)C)(C(=O)C(C(=O)c4ccc(O)c(O)c4)=C2OC1(C)C)C3=O (stereo unspecified)	5.93 min
C/C=C1\CN2CCc3c([nH]c4ccccc34)[C@@H]2C[C@@H]1/C(=C\OC)C(=O)OC	2.41 min
C=C(C(=O)C(OC(C)=O)C(C)C1C(OC(C)=O)CC2(C)C3CCC4C(C)C(=O)C=CC45CC35CCC12C)C(C)C (stereo unspecified)	5.46 min
CC[C@@H]1CN(C)C[C@@]2(C(=O)OC)Cc3c([nH]c4ccccc34)C(=O)C[C@@H]12	1.76 min
CC1CC2CC(=O)C3CCCN4CCCC2C34C1 (stereo unspecified)	1.06 min
COC1=CC(=O)C2(c3cc(=O)c4c(O)cc(O)cc4o3)C(CC=C(C)C2C[C@H]2[C@@H](C)[C@@H](O)C[C@H]3C(C)(C)C[C@H](O)C[C@]23C)C1=O (stereo partly specified)	1.14 min

Now from value to molecule:

LC retention time	Structure (SMILES)
5.22 min	C/C(=C\C1CC(C2CCC34CC23C=CC2C3(C)CC=C5CC(c6ccccc6)OCC5(C)C3CC(O)C24C)C(=O)O1)CO (stereo unspecified)
4.68 min	CCCCCCCCC/C=C\CCCC[C@@H]1CCC[C@@H](C)N1 [(2R,6R)-2-methyl-6-[(5Z)-pentadec-5-en-1-yl]piperidine]
1.4 min	C/C=C1/CN(C)[C@@H]2Cc3c([nH]c4ccccc34)C(=O)C[C@H]1C2C(=O)OC (stereo partly specified)
5.82 min	CCCCCCCCCCCCO[C@@H]1O[C@@H](C)[C@H](O[C@@H]2O[C@@H](C)[C@H](OC(C)=O)[C@@H](O[C@@H]3O[C@@H](C)[C@H](OC(C)=O)[C@@H](O[C@@H]4O[C@@H](C)[C@H](OC(C)=O)[C@@H](O)[C@H]4O)[C@H]3OC(C)=O)[C@H]2O)[C@@H](O)[C@H]1O
5.65 min	C=C(C)C1CCC2(C(=O)O)CCC3(C)C(CCC4C5(C)CCC(OC(=O)/C=C/c6ccc(O)c(O)c6)C(C)(C)C5CCC43C)C12 (stereo unspecified)
4.6 min	C=C(C(=O)C(O)C(C)C1C(OC(C)=O)CC2(C)C3CCC4C(C)C(=O)CCC45CC35CCC12C)C(C)CO (stereo unspecified)
6.07 min	CC(C)=CCCC(C)=CCC1=Cc2c(O)c3c(c(CC=C(C)C)c2OC1O)OC12C(=CC4CC1C(C)(C)OC2(CC=C(C)C(=O)O)C4=O)C3=O (stereo unspecified)
6.36 min	CCC(C)C(=O)C1=C(O)C2(CC=C(C)C)CC(CC=C(C)C)C(C)(C)C(C(CC(=O)O)c3ccccc3)=C2OC1=O (stereo unspecified)
5.19 min	CC(C)=CC1CC(C2CCC3(C)C4=CCC5C(C)(C)C(O)CCC5(C)C4CC(C=O)=C23)C(O)O1 (stereo unspecified)
1.62 min	C/C=C1/CN(C)C[C@H]2Cc3c([nH]c4ccccc34)C(=O)C[C@@H]12
4.84 min	CCCCCCCCCCC/C=C\CC[C@@H]1CCC[C@@H](C)N1 [(2R,6S)-2-methyl-6-[(3Z)-pentadec-3-en-1-yl]piperidine]
3.51 min	CC1(C(=O)O)CCCC2(C)C3CCC4CC3(C=C4CO)CCC12 (stereo unspecified)
4.71 min	C=C1COC(=O)C12C[C@@]1(C)C([C@@H](OC(=O)/C=C/SC)CC[C@@H]1C)[C@H]2OC(=O)/C(C)=C\C (stereo partly specified)
5.23 min	C=C(C(=O)CC(C)C1CCC2(C)C3CCC4C(C)(C(=O)OC5OC(C)C(O)C(O)C5O)C(O)CCC45CC35CCC12C)C(C)C (stereo unspecified)
3.16 min	CC1(C)CCC[C@]2(COC(=O)/C=C/c3ccc(O)c(O)c3)C1CC[C@@]13C[C@@H](CCC12)[C@@](O)(CO)C3 (stereo partly specified)
1.32 min	C/C=C1/CN2CCc3c([nH]c4ccccc34)[C@@](CO)(C(=O)OC)[C@H]1CC2
5.34 min	C/C(=C\CC/C=C(\C)CC/C=C(\C)CCC(O)C(C)(C)O)CC/C=C(\C)CCC(O)C(C)(C)O (stereo unspecified)
5.49 min	CCC(O)c1cc(=O)oc2c(C(=O)CC(C)C)c(O)c(CC=C(C)C)c(O)c12 (stereo unspecified)
